Key:
Male ddY mice [1] = assay: Suppressing activity on morphine analgesic tolerance (hot plate method, response latency); assay type: in vivo; conditions: for ΔChange (Latency at each time point − Pre value) 0.5 h / ΔChange (Latency at each time point − Pre value) 1 h / ΔChange (Latency at each time point − Pre value) 2 h: Table 3; for ΔChange (Latency at each time point − Pre value) 0.5 h: day 7, 0.5 h; for ΔChange (Latency at each time point − Pre value) 1 h: day 7, 1 h; for ΔChange (Latency at each time point − Pre value) 2 h: day 7, 2 h; for development of analgesic tolerance (response latency) / effect on the response latency: Test Example 4; for development of analgesic tolerance (response latency): compound 10 mg/kg p.o. 30 min before each morphine 6 mg/kg s.c.
Experimental: (§1) Food and water were provided ad libitum.
(§2) Morphine was dissolved in physiological saline at a concentration of 0.6 mg/mL and subcutaneously administered at a dose of 6 mg/kg.
as §1, §2
The effect of Compounds (IC) and (ID) on morphine analgesic tolerance was studied. The experiment was performed in the same manner as in Test Example 3. Compounds (IC) and (ID) were used at a dose of 10 mg/kg, respectively.

Male ddY mice [2] = assay: as above; assay type: in vivo
Male ddY mice [3] = assay: Suppressing activity on morphine-induced constipation (number of fecal pellets); assay type: in vivo; conditions: FIG. 2; morphine 3 mg/kg s.c.; pellets collected 3 hours after administration; vs normal group
Experimental: Food and water were provided ad libitum. At the time of collection of fecal pellets, food and water were not provided.
Morphine was dissolved in physiological saline at a concentration of 0.3 mg/mL and subcutaneously administered at a dose of 3 mg/kg.
On the day of the test, the tails of the mice were numbered for identification, and the body weight of each mouse was measured. On the basis of the measured body weight, 0.5% MC or Compound (IA) was orally administered. At 30 minutes after administration of 0.5% MC or Compound (IA), physiological saline or morphine was subcutaneously administered, and collection of fecal pellets was started. The fecal pellets were collected at 3 hours after administration of morphine. The amount of feces was evaluated by counting the number of the fecal pellets.

Male ddY mice [4] = assay: Suppressing activity on oxycodone analgesic tolerance (hot plate method, response latency); conditions: for Latency (sec) Pre value (before drug administration on last day) / ΔChange (Latency at each time point − Pre value) 0.5 h / ΔChange (Latency at each time point − Pre value) 1 h / ΔChange (Latency at each time point − Pre value) 2 h: Table 6
[5] = compound 10 mg/kg p.o. repeatedly administered alone
[6] = repeated combination group: compound 10 mg/kg p.o. 30 min before each morphine 6 mg/kg s.c., 7 days

CCn1c(=O)c2c(nc(/C=C/c3cc(OC)c(OC)c(OC)c3)n2C)n(CC)c1=O [Compound (IC)]
ΔChange (Latency at each time point − Pre value) 0.5 h (Male ddY mice [1]; [5]): 1.0 ± 0.7 s
ΔChange (Latency at each time point − Pre value) 1 h (Male ddY mice [1]; [5]): 3.3 ± 1.2 s
ΔChange (Latency at each time point − Pre value) 2 h (Male ddY mice [1]; [5]): 1.7 ± 0.7 s
ΔChange (Latency at each time point − Pre value) 0.5 h (Male ddY mice [1]; [6]): 16.0 ± 1.8 s
ΔChange (Latency at each time point − Pre value) 1 h (Male ddY mice [1]; [6]): 5.1 ± 1.7 s
ΔChange (Latency at each time point − Pre value) 2 h (Male ddY mice [1]; [6]): 0.9 ± 1.3 s
development of analgesic tolerance (response latency) (Male ddY mice [1]; 7 days): the development of analgesic tolerance was prevented
effect on the response latency (Male ddY mice [1]; [5]): the effect on the response latency was not observed

COc1ccc(/C=C/c2nc3c(c(=O)n(C)c(=O)n3C)n2C)cc1OC [Compound (ID)]
ΔChange (Latency at each time point − Pre value) 0.5 h (Male ddY mice [1]; [5]): 2.1 ± 0.8 s
ΔChange (Latency at each time point − Pre value) 1 h (Male ddY mice [1]; [5]): 2.3 ± 1.3 s
ΔChange (Latency at each time point − Pre value) 2 h (Male ddY mice [1]; [5]): 2.5 ± 0.9 s
ΔChange (Latency at each time point − Pre value) 0.5 h (Male ddY mice [1]; [6]): 14.3 ± 1.7 s
ΔChange (Latency at each time point − Pre value) 1 h (Male ddY mice [1]; [6]): 5.1 ± 1.3 s
ΔChange (Latency at each time point − Pre value) 2 h (Male ddY mice [1]; [6]): -0.1 ± 1.4 s
development of analgesic tolerance (response latency) (Male ddY mice [1]; 7 days): the development of analgesic tolerance was prevented
effect on the response latency (Male ddY mice [1]; [5]): the effect on the response latency was not observed

Cc1nc(-c2sc(NC(=O)C3CC3)nc2-c2ccccc2)no1 [Compound (VII)]
ΔChange (Latency at each time point − Pre value) 0.5 h (Male ddY mice [2]; Table 4, Compound (VII) 60 mg/kg p.o. repeatedly administered alone, day 7, 0.5 h): -0.8 ± 1.0 s
ΔChange (Latency at each time point − Pre value) 1 h (Male ddY mice [2]; Table 4, Compound (VII) 60 mg/kg p.o. repeatedly administered alone, day 7, 1 h): -0.7 ± 1.0 s
ΔChange (Latency at each time point − Pre value) 2 h (Male ddY mice [2]; Table 4, Compound (VII) 60 mg/kg p.o. repeatedly administered alone, day 7, 2 h): 0.0 ± 0.6 s
ΔChange (Latency at each time point − Pre value) 0.5 h (Male ddY mice [2]; Table 4, repeated combination group: Compound (VII) 60 mg/kg p.o. 30 min before each morphine 6 mg/kg s.c., 7 days, day 7, 0.5 h): 12.8 ± 2.1 s
ΔChange (Latency at each time point − Pre value) 1 h (Male ddY mice [2]; Table 4, repeated combination group: Compound (VII) 60 mg/kg p.o. 30 min before each morphine 6 mg/kg s.c., 7 days, day 7, 1 h): 7.8 ± 1.3 s
ΔChange (Latency at each time point − Pre value) 2 h (Male ddY mice [2]; Table 4, repeated combination group: Compound (VII) 60 mg/kg p.o. 30 min before each morphine 6 mg/kg s.c., 7 days, day 7, 2 h): 1.8 ± 0.8 s
development of analgesic tolerance (response latency) (Male ddY mice [2]; Test Example 5, Compound (VII) 60 mg/kg p.o. 30 min before each morphine 6 mg/kg s.c., 7 days): the development of analgesic tolerance was prevented
effect on the response latency (Male ddY mice [2]; Test Example 5, Compound (VII) 60 mg/kg p.o. repeatedly administered alone): the effect on the response latency was not observed

Cc1cc(Cn2nnc3c(-c4ccco4)nc(N)nc32)ccc1N [Compound (VIII)]
ΔChange (Latency at each time point − Pre value) 0.5 h (Male ddY mice [2]; Table 5, compound 30 mg/kg p.o. repeatedly administered alone, day 7, 0.5 h): −0.5 ± 0.9 ^ sec
ΔChange (Latency at each time point − Pre value) 1 h (Male ddY mice [2]; Table 5, compound 30 mg/kg p.o. repeatedly administered alone, day 7, 1 h): 0.1 ± 0.9 s
ΔChange (Latency at each time point − Pre value) 2 h (Male ddY mice [2]; Table 5, compound 30 mg/kg p.o. repeatedly administered alone, day 7, 2 h): -1.1 ± 1.1 s
ΔChange (Latency at each time point − Pre value) 0.5 h (Male ddY mice [2]; Table 5, repeated combination group: compound 30 mg/kg p.o. 30 min before each morphine 6 mg/kg s.c., 7 days, day 7, 0.5 h): 13.6 ± 1.6 s
ΔChange (Latency at each time point − Pre value) 1 h (Male ddY mice [2]; Table 5, repeated combination group: compound 30 mg/kg p.o. 30 min before each morphine 6 mg/kg s.c., 7 days, day 7, 1 h): 7.8 ± 0.8 s
ΔChange (Latency at each time point − Pre value) 2 h (Male ddY mice [2]; Table 5, repeated combination group: compound 30 mg/kg p.o. 30 min before each morphine 6 mg/kg s.c., 7 days, day 7, 2 h): 1.1 ± 0.8 s
development of analgesic tolerance (response latency) (Male ddY mice [2]; Test Example 6, compound 30 mg/kg p.o. 30 min before each morphine 6 mg/kg s.c., 7 days): the development of analgesic tolerance was prevented
effect on the response latency (Male ddY mice [2]; Test Example 6, compound 30 mg/kg p.o. repeatedly administered alone): the effect on the response latency was not observed

CN1CC[C@]23c4c5ccc(O)c4O[C@H]2[C@@H](O)C=C[C@H]3[C@H]1C5 [morphine, reference compound]
number of fecal pellets (Male ddY mice [3]): significantly decreased
ΔChange (Latency at each time point − Pre value) 0.5 h (Male ddY mice [2]; Table 1, single morphine administration group: morphine 6 mg/kg s.c. only on day 7, 0.5 h): 21.9 ± 1.9 s
ΔChange (Latency at each time point − Pre value) 1 h (Male ddY mice [2]; Table 1, single morphine administration group: morphine 6 mg/kg s.c. only on day 7, 1 h): 11.8 ± 1.1 s
ΔChange (Latency at each time point − Pre value) 2 h (Male ddY mice [2]; Table 1, single morphine administration group: morphine 6 mg/kg s.c. only on day 7, 2 h): 2.9 ± 0.9 s
ΔChange (Latency at each time point − Pre value) 0.5 h (Male ddY mice [2]; Table 2, single morphine administration group: morphine 6 mg/kg s.c. only on day 7, 0.5 h): 20.2 ± 1.9 ^ sec
ΔChange (Latency at each time point − Pre value) 1 h (Male ddY mice [2]; Table 2, single morphine administration group: morphine 6 mg/kg s.c. only on day 7, 1 h): 6.3 ± 1.7 s
ΔChange (Latency at each time point − Pre value) 2 h (Male ddY mice [2]; Table 2, single morphine administration group: morphine 6 mg/kg s.c. only on day 7, 2 h): 2.3 ± 0.5 s
ΔChange (Latency at each time point − Pre value) 0.5 h (Male ddY mice [2]; Table 3, single morphine administration group: morphine 6 mg/kg s.c. only on day 7, 0.5 h): 19.5 ± 2.0 s
ΔChange (Latency at each time point − Pre value) 1 h (Male ddY mice [2]; Table 3, single morphine administration group: morphine 6 mg/kg s.c. only on day 7, 1 h): 6.4 ± 1.5 s
ΔChange (Latency at each time point − Pre value) 2 h (Male ddY mice [2]; Table 3, single morphine administration group: morphine 6 mg/kg s.c. only on day 7, 2 h): -0.8 ± 1.5 s
ΔChange (Latency at each time point − Pre value) 0.5 h (Male ddY mice [2]; Table 4, single morphine administration group: morphine 6 mg/kg s.c. only on day 7, 0.5 h): 16.8 ± 2.7 s
ΔChange (Latency at each time point − Pre value) 1 h (Male ddY mice [2]; Table 4, single morphine administration group: morphine 6 mg/kg s.c. only on day 7, 1 h): 10.4 ± 2.2 s
ΔChange (Latency at each time point − Pre value) 2 h (Male ddY mice [2]; Table 4, single morphine administration group: morphine 6 mg/kg s.c. only on day 7, 2 h): 8.8 ± 0.6 s
ΔChange (Latency at each time point − Pre value) 0.5 h (Male ddY mice [2]; Table 5, single morphine administration group: morphine 6 mg/kg s.c. only on day 7, 0.5 h): 18.0 ± 2.2 s
ΔChange (Latency at each time point − Pre value) 1 h (Male ddY mice [2]; Table 5, single morphine administration group: morphine 6 mg/kg s.c. only on day 7, 1 h): 6.8 ± 1.3 s
ΔChange (Latency at each time point − Pre value) 2 h (Male ddY mice [2]; Table 5, single morphine administration group: morphine 6 mg/kg s.c. only on day 7, 2 h): 1.9 ± 1.0 s
development of analgesic tolerance (response latency) (Male ddY mice [2]; Test Example 1, FIG. 1, morphine 6 mg/kg s.c. repeatedly for 7 days vs single morphine administration group): the development of analgesic tolerance was observed
development of analgesic tolerance (response latency) (Male ddY mice [2]; Test Example 3, morphine 6 mg/kg s.c. repeatedly for 7 days vs single morphine administration group): the development of analgesic tolerance was observed
development of analgesic tolerance (response latency) (Male ddY mice [2]; Test Example 4, morphine 6 mg/kg s.c. repeatedly for 7 days vs single morphine administration group): the development of analgesic tolerance was observed
development of analgesic tolerance (response latency) (Male ddY mice [2]; Test Example 5, morphine 6 mg/kg s.c. repeatedly for 7 days vs single morphine administration group): the development of analgesic tolerance was observed
development of analgesic tolerance (response latency) (Male ddY mice [2]; Test Example 6, morphine 6 mg/kg s.c. repeatedly for 7 days vs single morphine administration group): the development of analgesic tolerance was observed

COc1ccc2c3c1O[C@H]1C(=O)CC[C@@]4(O)[C@@H](C2)N(C)CC[C@]314 [oxycodone, reference compound]
Latency (sec) Pre value (before drug administration on last day) (Male ddY mice [4]; repeated oxycodone administration group: oxycodone 20 mg/kg p.o. twice a day, 4 days, day 4): 12.4 ± 1.1 s
ΔChange (Latency at each time point − Pre value) 0.5 h (Male ddY mice [4]; repeated oxycodone administration group: oxycodone 20 mg/kg p.o. twice a day, 4 days, day 4, 0.5 h): 5.9 ± 3.4 s
ΔChange (Latency at each time point − Pre value) 1 h (Male ddY mice [4]; repeated oxycodone administration group: oxycodone 20 mg/kg p.o. twice a day, 4 days, day 4, 1 h): 2.7 ± 2.3 s
ΔChange (Latency at each time point − Pre value) 2 h (Male ddY mice [4]; repeated oxycodone administration group: oxycodone 20 mg/kg p.o. twice a day, 4 days, day 4, 2 h): 0.1 ± 1.3 s
Latency (sec) Pre value (before drug administration on last day) (Male ddY mice [4]; single oxycodone administration group: distilled water twice a day 3 days, oxycodone 20 mg/kg p.o. only on day 4): 11.7 ± 1.0 s
ΔChange (Latency at each time point − Pre value) 0.5 h (Male ddY mice [4]; single oxycodone administration group: oxycodone 20 mg/kg p.o. only on day 4, 0.5 h): 17.5 ± 4.2 s
ΔChange (Latency at each time point − Pre value) 1 h (Male ddY mice [4]; single oxycodone administration group: oxycodone 20 mg/kg p.o. only on day 4, 1 h): 11.8 ± 2.0 s
ΔChange (Latency at each time point − Pre value) 2 h (Male ddY mice [4]; single oxycodone administration group: oxycodone 20 mg/kg p.o. only on day 4, 2 h): 6.9 ± 2.4 s
development of analgesic tolerance (response latency) (Male ddY mice [4]; Test Example 7, oxycodone 20 mg/kg p.o. repeatedly for 4 days vs single oxycodone administration group): the development of analgesic tolerance was observed
